Laboratory results taken from US7947854B2, “Bis-cationic compounds and use thereof” (The University of Sydney, priority 2003, dated 2011).
Like-named read-outs stand apart in the source and are kept apart here.

How the values were obtained:
[1] = test system: Candida albicans ATCC 10231; assay: Antifungal susceptibility testing, microdilution MIC; type: cell-based
Method: (§1) Antifungal susceptibility testing. The antifingal activity of the compounds was measured by a standard microdilution method. […] The fungal strains tested included Cryptococcus neoformans H99, Cryptococcus neoformans ATCC 90112 and Candida albicans ATCC 10231. All tests were performed in duplicate.
(§2) A range of cationic compounds were assayed for antifungal activity in a standardised serial dilution sensitivity test against C. neoformans ([…]) and C. Albicans (ATCC 10231).

erythrocyte = type: cell-based; conditions: 37° C., 1 h
Method: Human blood was collected in 10 mL Vacutainer tubes containing potassium-EDTA as anticoagulant. The blood from each vacutainer was transferred to a 50 mL centrifuge tube and the cells washed three times with calcium- and magnesium-free phosphate buffered saline (PBS) (Gibco) by centrifugation at 2000×g for 15 min. The third supernatant was clear and colourless. Cells were stored in PBS for up to two weeks. The cell suspension in PBS (0.5 mL) was mixed with a stock solution of test substance (0.5 mL) at the appropriate concentration (final erythrocyte concentration of approx. 0.5×10^9 per mL). The mixtures were incubated at 37° C. for 1 h with gentle shaking, then centrifuged at 2000×g for 10 min. The supernatant was diluted 10-fold with PBS and the optical density measured at 540 nm. The values for 0% and 100% lysis were determined by incubating cells with PBS or 0.1% Triton X-100 (in water), respectively. Assays were carried out in triplicate.

[2] = test system: Cryptococcus neoformans ATCC 90112; assay: Antifungal susceptibility testing, microdilution MIC; type: cell-based
Method: as §1, §2

[3] = test system: secreted phospholipase B (PLB activity); assay: Radiometric assay, secreted PLB activity; type: biochemical, Cryptococcus neoformans H99
Method: (§3) Fungal isolates and media. […] Isolate H99 was kindly supplied by Dr. Gary Cox (Duke University Medical Center, Durham, N.C., USA), and subcultured onto Sabouraud dextrose agar (SDA) at 30° C.
(§4) Preparation of supernatants containing secreted phospholipase activities. Isolate H99 was grown to confluence on SDA in 16 cm diameter Petri dishes for 72 h at 30° C. in air. Cells scraped from 10-20 dishes were washed sequentially with isotonic saline and imidazole buffer (10 mM imidazole, 2 mM CaCl2, 2 mM Mg Cl2, 56 mM D-Glucose, made up in isotonic saline, pH 5.5), resuspended in a volume of this buffer of about 10% of the cell volume, and incubated for 24 h at 37° C. The cell-free supernatant was separated by centrifugation as previously described and stored at −70° C.
Radiometric assay method for phospholipases. Enzyme activities were measured as described previously in a final volume of 125 μL at 37° C. For the determination of secreted PLB activity, carrier dipalmitoyl phosphatidylcholine (DPPC, final concentration 800 μM) and 1,2-di[1-^14C] palmitoyl phosphatidylcholine (20,000 dpm) were dried under nitrogen and suspended in 125 mM imidazole acetate buffer (assay buffer, pH 4.0) by sonication using a Branson 450 sonifier. The reaction time was 22 min, using 1 μg total protein and PLB activity was determined by the rate of decrease of the radiolabelled PC substrate, with appearance of the label in free fatty acid. This assay also simultaneously allows for the determination of phospholipase A, C and D activities. These activities were measured by the appearance of radiolabel from PC in Lyso PC, diacylglycerol and phosphatidic acid, respectively.
(§5) All reactions were terminated by adding 0.5 mL of chloroform:methanol (2:1 v/v). The reaction products were extracted by the method as disclosed in Bligh, E. C. and W. J. Dyer. 1959 ‘A rapid method of total lipid extraction and purification.’ Can. J. Biochem. Physiol. 37:911-917, separated by TLC and quantified as previously described. In the case of PLC activity, the TLC plates were developed in petroleum ether (BP 60-80° C.): diethyl ether: acetic acid (90:15:1, v/v/v) instead of chloroform:methanol:water (65:25:4, v/v/v).
(§6) Preparation of inhibitors and use in assays. The following compounds were tested (for structures, see FIG. 2): compound 1, 1,12-bis(tributylphosphonium)dodecane dibromide (Fluka AG, Buchs, Switzerland); compound 2, 1,10-bis(tributylammonium)-decane dibromide; compound 3, 1,12-bis(tributylammonium)do-decane dibromide (both synthesised in-house); compound 4, 1,10-bis(trimethylammonium)decane dibromide [“decamethonium”] (Sigma, St. Louis Mo., USA). All compounds were prepared as stock solutions of 700 μM in assay buffer containing 5 mM EDTA, which was then diluted serially with buffer to obtain solutions of 70, 7, 0.7 and 0.07 μM. In each assay, 45 μL of these solutions was used, and the final volume of 125 μL was made up of substrate, enzyme and buffer. The radiometric assay was carried out as above. Inhibition was calculated as the percent of substrates (DPPC or Lyso-PC) remaining in the case of PLB and LPL activities, or of DPPC produced, in the case of the LPTA activity. The amounts converted, or produced, in the inhibitor-free control were normalised to 100%, and the inhibition calculated against it. All assays were done in triplicate.
(§7) Under these conditions only PLB, LPL and LPTA activities (both secreted and cell-associated) were measured. Initially, compounds deemed to be potential inhibitors were assayed at 25 and 250 μM. Those showing some inhibition were then also assayed at 2.5 and 0.25 μM.

[4] = test system: secreted phospholipase B (LPL/LPTA activities); assay: Radiometric assay, secreted LPL and LPTA activities (Lyso assay); type: biochemical, Cryptococcus neoformans H99
Method: as §3, §4
Secreted LPL and LPTA activities were measured simultaneously in a reaction mixture containing 1-[^14C]palmitoyl lyso-PC (25,000 dpm) and carrier lyso-PC (final concentration 200 μM) in assay buffer. The reaction time was […] with 1 μg of total protein and LPL activity was measured by the rate of loss of 1-[^14C]palmitoyl lyso-PC with release of radiolabelled fatty acids. LPTA activity was estimated from the rate of formation of radiolabelled PC.
as §5, §6, §7

[5] = Candida albicans, ATCC10231, Table 7, read-out: MIC (μM) C. alb. (10231)
[6] = Cryptococcus neoformans, ATCC90112, Table 7, read-out: MIC (μM) Crypto. (ATCC 90112)
[7] = Table 7, read-out: MIC (μM) C. alb. (10231)
[8] = Table 7, read-out: MIC (μM) Crypto. (ATCC 90112)

| SMILES | MIC [1, 5] | PLB assay (% inhibition) ([3]; 25 μM) | PLB assay (% inhibition) ([3]; 250 μM) | Lyso assay (% inhibition) LPL ([4]; 25 μM) | Lyso assay (% inhibition) LPTA ([4]; 25 μM) | Lyso assay (% inhibition) LPL ([4]; 250 μM) | Lyso assay (% inhibition) LPTA ([4]; 250 μM) | MIC [1, 7] | MIC [2, 8] | other results |
| --- | --- | --- | --- | --- | --- | --- | --- | --- | --- | --- |
| CCCCCCCCCCCCCCCC[N+](CCCC)(CCCC)CCCC | 1.4 µM |  |  |  |  |  |  |  |  | Haemolytic assay (%) (erythrocyte; 3.5 μM): 2.5%; Haemolytic assay (%) (erythrocyte; 35 μM): 4%; Haemolytic assay (%) (erythrocyte; 88 μM): 19%; Haemolytic assay (%) (erythrocyte; 175 μM): 75%; Haemolytic assay (%) (erythrocyte; 350 μM): 100% |
| CCCC[N+](CCCC)(CCCC)CCCCCCCCCCC[N+](CCCC)(CCCC)CCCC [1,11-Bis-(tributylammonium)undecane dichloride] | 44 µM |  |  |  |  |  |  |  |  | MIC [2, 6]: 22 µM |
| C[N+]1(CCCCCCCCCCCC[N+]2(C)CCOCC2)CCOCC1 [1,12-Bis-(1-methylmorpholinium)dodecane dibromide] | 88 µM |  |  |  |  |  |  |  |  | MIC [2, 6]: 44 µM |
| C(CCCCCC[N+]12CCC(CC1)CC2)CCCCC[N+]12CCC(CC1)CC2 [1,12-Bis-(quinuclidinium)dodecane dibromide] | ≥ 350 µM | 0% | 5% | 250 μM = 0% 25 μM = 0% 2.5 μM = 0% 0.25 μM = 0% | 250 μM = 0% 25 μM = 0% 2.5 μM = 0% 0.25 μM = 0% | 250 μM = 0% 25 μM = 0% 2.5 μM = 0% 0.25 μM = 0% | 250 μM = 0% 25 μM = 0% 2.5 μM = 0% 0.25 μM = 0% |  |  | MIC [2, 6]: 350 µM; PLB assay (% inhibition) ([3]; 0.25 μM): 0%; PLB assay (% inhibition) ([3]; 2.5 μM): 0%; Lyso assay (% inhibition) LPL ([4]; 0.25 μM): 250 μM = 0% 25 μM = 0% 2.5 μM = 0% 0.25 μM = 0%; Lyso assay (% inhibition) LPTA ([4]; 0.25 μM): 250 μM = 0% 25 μM = 0% 2.5 μM = 0% 0.25 μM = 0%; Lyso assay (% inhibition) LPL ([4]; 2.5 μM): 250 μM = 0% 25 μM = 0% 2.5 μM = 0% 0.25 μM = 0%; Lyso assay (% inhibition) LPTA ([4]; 2.5 μM): 250 μM = 0% 25 μM = 0% 2.5 μM = 0% 0.25 μM = 0% |
| CC[N+](CC)(CC)CCCCCCCCCCCC[N+](CC)(CC)CC [1,12-Bis-(triethylammonium)dodecane dibromide] |  |  |  |  |  |  |  |  |  | MIC ([1]; Candida albicans, ATCC10231, read-out: MIC (μM) C. alb. (10231)): 22 µM; MIC ([2]; Cryptococcus neoformans, ATCC90112, read-out: MIC (μM) Crypto. (ATCC 90112)): 11 µM |
| CCCCCC[N+](CCCCCC)(CCCCCC)CCCCCCCCCCCC[N+](CCCCCC)(CCCCCC)CCCCCC.[Cl-].[Cl-] [1,12-Bis-(trihexylammonium)dodecane dichloride] |  |  |  |  |  |  |  | 8.8 µM | 17.5 µM |  |
| CC(C)C[N+](CCCCCCCCCCCC[N+](CC(C)C)(CC(C)C)CC(C)C)(CC(C)C)CC(C)C.[Br-].[Br-] [1,12-Bis-(triisobutylammonium)dodecane dibromide] |  | 250 μM = 0% 25 μM = 0% 2.5 μM = n.d. 0.25 μM = n.d. | 250 μM = 0% 25 μM = 0% 2.5 μM = n.d. 0.25 μM = n.d. | 250 μM = 0% 25 μM = 0% 2.5 μM = n.d. 0.25 μM = n.d. | 4% | 250 μM = 0% 25 μM = 0% 2.5 μM = n.d. 0.25 μM = n.d. | 5% |  |  | MIC (μM) C. alb. (10231) ([1]; Table 7): ≧350 μM; MIC (μM) Crypto. (ATCC 90112) ([2]; Table 7): ≧350 μM |
| CC(C)CC[N+](CCCCCCCCCCCC[N+](CCC(C)C)(CCC(C)C)CCC(C)C)(CCC(C)C)CCC(C)C.[Cl-].[Cl-] [1,12-Bis-(triisopentylammonium)dodecane dichloride] |  | 68% | 63% | 250 μM = 11% 25 μM = 11% 2.5 μM = n.d. 0.25 μM = n.d. | 0% | 250 μM = 11% 25 μM = 11% 2.5 μM = n.d. 0.25 μM = n.d. | 6% | 2.2 µM | 4.4 µM | PLB assay (% inhibition) ([3]; 0.25 μM): 0%; PLB assay (% inhibition) ([3]; 2.5 μM): 9%; PLB assay (% inhibition) ([3]; 6.7 μM): 38%; PLB assay (% inhibition) ([3]; 12.5 μM): 56% |
| CCCCCCCC[N+](CCCCCCCC)(CCCCCCCC)CCCCCCCCCCCC[N+](CCCCCCCC)(CCCCCCCC)CCCCCCCC.[Cl-].[Cl-] [1,12-Bis-(trioctylammonium)dodecane dichloride] |  |  |  |  |  |  |  | 100 µM | 35 µM |  |
| CCCCC[N+](CCCCC)(CCCCC)CCCCCCCCCCCC[N+](CCCCC)(CCCCC)CCCCC.[Br-].[Br-] [1,12-Bis-(tripentylammonium)dodecane dibromide] |  | 73% | 63% | 250 μM = 10% 25 μM = 10% 2.5 μM = n.d. 0.25 μM = n.d. | 0% | 250 μM = 10% 25 μM = 10% 2.5 μM = n.d. 0.25 μM = n.d. | 2.4% | 5.5 µM | 5.5 µM | PLB assay (% inhibition) ([3]; 0.25 μM): 0%; PLB assay (% inhibition) ([3]; 2.5 μM): 12% |
| CC[N+](CC)(CC)CCOc1cccc(OCC[N+](CC)(CC)CC)c1OCC[N+](CC)(CC)CC [Gallamine triethiodide, reference compound] | ≥ 350 µM |  |  |  |  |  |  |  |  | Haemolytic assay (%) (erythrocyte; 3.5 μM): 350 μM = 0% 175 μM = 0% 88 μM = 0% 35 μM = 0% 3.5 μM = 0%; Haemolytic assay (%) (erythrocyte; 35 μM): 350 μM = 0% 175 μM = 0% 88 μM = 0% 35 μM = 0% 3.5 μM = 0%; Haemolytic assay (%) (erythrocyte; 88 μM): 350 μM = 0% 175 μM = 0% 88 μM = 0% 35 μM = 0% 3.5 μM = 0%; Haemolytic assay (%) (erythrocyte; 175 μM): 350 μM = 0% 175 μM = 0% 88 μM = 0% 35 μM = 0% 3.5 μM = 0%; Haemolytic assay (%) (erythrocyte; 350 μM): 350 μM = 0% 175 μM = 0% 88 μM = 0% 35 μM = 0% 3.5 μM = 0% |
| C[N+]1(C)CCOC(O)(c2ccc(-c3ccc(C4(O)C[N+](C)(C)CCO4)cc3)cc2)C1 (stereo not drawn) [Hemicholinium dibromide, reference compound] | ≥ 350 µM |  |  |  |  |  |  |  |  | Haemolytic assay (%) (erythrocyte; 3.5 μM): 350 μM = 0% 175 μM = 0% 88 μM = 0% 35 μM = 0% 3.5 μM = 0%; Haemolytic assay (%) (erythrocyte; 35 μM): 350 μM = 0% 175 μM = 0% 88 μM = 0% 35 μM = 0% 3.5 μM = 0%; Haemolytic assay (%) (erythrocyte; 88 μM): 350 μM = 0% 175 μM = 0% 88 μM = 0% 35 μM = 0% 3.5 μM = 0%; Haemolytic assay (%) (erythrocyte; 175 μM): 350 μM = 0% 175 μM = 0% 88 μM = 0% 35 μM = 0% 3.5 μM = 0%; Haemolytic assay (%) (erythrocyte; 350 μM): 350 μM = 0% 175 μM = 0% 88 μM = 0% 35 μM = 0% 3.5 μM = 0% |
